For 30 compounds, IC50 and Kd results are on record in paper PMC4342888, “A search for protein biomarkers links olfactory signal transduction to social immunity” (BMC Genomics, 2015).

For assay [1], the target named is T1, OBP21 (Apis mellifera, UniProt A0ACM8Q9Q6).
T1 construct: purified recombinant protein
T1 sequence (A0ACM8Q9Q6 17-135): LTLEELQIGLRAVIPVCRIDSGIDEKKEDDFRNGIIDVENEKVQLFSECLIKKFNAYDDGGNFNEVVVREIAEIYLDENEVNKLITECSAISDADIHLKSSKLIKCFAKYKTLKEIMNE
Description: biochemical. The arrangement: competitive fluorescence displacement of 2 uM 1-NPN from purified recombinant OBP (2 uM), Tris pH 7.4. The note with it: IC50 against 2 uM 1-NPN. As to the method:
(§1) The probe was excited at 337 nm and emission spectra were recorded between 380 and 450 nm. […] For determining binding constants, the intensity values corresponding to the maximum of fluorescence emission were plotted against free ligand concentrations. Bound ligand was evaluated from the values of fluorescence intensity assuming that the protein was 100% active, with a stoichiometry of 1:1 protein:ligand at saturation. The curves were linearized using Scatchard plots. Dissociation constants of the competitors were calculated from the corresponding IC50 values (concentrations of ligands halving the initial fluorescence value of 1-NPN), using the equation: KD = [IC50]/1 + [1-NPN]/K1-NPN, [1-NPN] being the free concentration of 1-NPN and K1-NPN being the dissociation constant of the complex Protein/1-NPN.  Figure 7 Potential ligands of OBPs. Twenty nine potential ligands were tested in a competitive binding assay for their binding to OBP16, OBP18 and OBP21. Each purified recombinant protein was mixed with the fluorescent probe N-phenyl-1-naphthylamine (1-NPN), both at the concentration of 2 μM in Tris buffer. Each mixture was titrated with a ligand and the displacement of the fluorescent probe from the complex was used to evaluate the relative dissociation constants, as described in the Methods section. Compounds with higher affinities are shown in the top panel, while compound with lower affinity are shown in the lower panel.

Assay [2] deals with T2, Odorant binding protein 16 (OBP16) (Apis mellifera, UniProt A0ACM8Q9Q1).
T2 construct: recombinant mature protein
T2 sequence (A0ACM8Q9Q1 17-135): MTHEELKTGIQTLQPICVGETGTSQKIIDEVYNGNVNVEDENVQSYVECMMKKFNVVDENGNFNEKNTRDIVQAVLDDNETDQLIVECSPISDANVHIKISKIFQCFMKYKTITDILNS
Description: biochemical. The arrangement: competitive fluorescence displacement of 2 uM 1-NPN from purified recombinant OBP (2 uM), Tris pH 7.4. The following applies: for IC50: IC50 against 2 uM 1-NPN; for Kd: KD calculated from IC50 of 1-NPN displacement. As to the method:
as §1

For assay [3], the target named is T3, Odorant binding protein 18 (OBP18) (Apis mellifera, UniProt A0ACM8Q9Q2).
T3 construct: recombinant mature protein
T3 sequence (A0ACM8Q9Q2 17-135): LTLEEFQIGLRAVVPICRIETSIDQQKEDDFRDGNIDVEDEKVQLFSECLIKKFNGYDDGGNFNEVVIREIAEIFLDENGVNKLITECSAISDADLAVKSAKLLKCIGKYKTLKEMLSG
Description: biochemical. The note with it: for IC50: IC50 against 2 uM 1-NPN; for Kd: KD calculated from IC50 of 1-NPN displacement. On the set-up: competitive fluorescence displacement of 2 uM 1-NPN from purified recombinant OBP (2 uM), Tris pH 7.4. As to the method: as §1

The target of assay [4] is T1, OBP21. Briefly: biochemical. The arrangement: competitive fluorescence displacement of 1-NPN (2 uM) from recombinant OBP, emission 380-450 nm. As to the method: as §1
Assay [5] concerns the target T3, Odorant binding protein 18 (OBP18). Description: direct fluorescence titration of purified protein.
In assay [6] the target is T2, Odorant binding protein 16 (OBP16). Description: direct fluorescence titration of purified protein.
The target of assay [7] is T1, OBP21. Briefly: direct fluorescence titration of purified protein. The class given is binding.

Take `O=C/C=C/c1ccccc1` [Cinnamaldehyde]: the values for the IC50 (on OBP21 [1]; in assay [2]; in assay [3]) were over 20000 nM, 20000 nM and 3400 nM, respectively. The Kd was 9200 nM in assay [2] and 1500 nM in assay [3].

Consider `CC(C)CC(=O)O` [3-Methylbutanoic acid], for which the IC50 on OBP21 [1] is over 20000 nM; in assay [2], 11000 nM; in assay [3], 2500 nM. Moreover, the values for the Kd in assay [2] and in assay [3] were 5000 nM and 1100 nM, respectively.

Regarding `COc1cc(CC(=O)O)ccc1O` [Homovanillic acid], the figures for the IC50 (on OBP21 [1]; in assay [2]; in assay [3]) were over 20000 nM, 18000 nM and 3200 nM, respectively. Moreover, the Kd in assay [2] is 8300 nM; in assay [3], 1400 nM.

As for `CCCCCCCCCCCCCCCC(=O)OCC` [Ethyl palmitate], the figures for the IC50 (on OBP21 [1]; in assay [2]; in assay [3]) were over 20000 nM, 1100 nM and 200 nM, respectively. Also, the Kd is 500 nM in assay [2] and 100 nM in assay [3].

Turning to `COc1ccccc1/C=C/C=O` [2-Methoxycinnamaldehyde], the IC50 on OBP21 [1] stood at 20000 nM; in assay [2] it was 20000 nM; in assay [3], 3800 nM. Also, the Kd was 9200 nM in assay [2], 1700 nM in assay [3] and 33900 nM at OBP21 [4].

In the case of `COc1cc(CCO)ccc1O` [Homovanillic alcohol], the IC50 at OBP21 [1] is over 20000 nM; in assay [2] it was 10500 nM; in assay [3] it was 2700 nM. Further, the equilibrium dissociation constant (Kd) was 4800 nM in assay [2] and 1200 nM in assay [3].

In the case of `CCCCC/C=C\C/C=C\CCCCCCCC(=O)OC` [Methyl linoleate], the values for the IC50 (at OBP21 [1]; in assay [2]; in assay [3]) were over 20000 nM, 2000 nM and 100 nM, respectively. In addition, the equilibrium dissociation constant (Kd) in assay [2] is 900 nM; in assay [3], 40 nM.

For `CCCCCCCCCCCCCCCCCC(=O)OC` [Methyl stearate], the figures for the IC50 (at OBP21 [1]; in assay [2]; in assay [3]) were over 20000 nM, 1000 nM and 200 nM, respectively. Besides, the Kd in assay [2] was 500 nM; in assay [3], 100 nM.

As for `CCCCCCCC/C=C\CCCCCCCC(=O)O` [oleic acid], the results for the IC50 (at OBP21 [1]; in assay [2]; in assay [3]) were 300 nM, 900 nM and 100 nM, respectively. Further, the equilibrium dissociation constant (Kd) in assay [2] is 400 nM; in assay [3] it was 40 nM; on OBP21 [4], 400 nM.

For the compound `CC(=O)CCCCCCCC(=O)O` [9-Ketodecanoic acid], the IC50 on OBP21 [1] was 4000 nM; in assay [2], 3500 nM; in assay [3], 1500 nM. Also, the figures for the Kd (in assay [2]; in assay [3]; at OBP21 [4]) were 1600 nM, 700 nM and 6800 nM, respectively.

As to `C=CC(C)(O)CCC=C(C)C` (stereo not shown) [Linalool], the IC50 on OBP21 [1] is over 20000 nM; in assay [2] it was 18000 nM; in assay [3], 3000 nM. The Kd in assay [2] is 8300 nM; in assay [3], 1300 nM.

For the compound `OCc1ccccc1` [Benzyl alcohol], the results for the IC50 (at OBP21 [1]; in assay [2]; in assay [3]) were over 20000 nM, 9800 nM and 2500 nM, respectively. The Kd in assay [2] was 4500 nM; in assay [3], 1100 nM.

For the compound `CC(=O)OC/C=C(\C)CCC=C(C)C` [geranyl acetate], the IC50 at OBP21 [1] was 1800 nM; in assay [2] it was 200 nM; in assay [3], 200 nM. In addition, the Kd in assay [2] was 100 nM; in assay [3] it was 100 nM; on OBP21 [4], 3100 nM.

In the case of `COC(=O)c1ccc(O)cc1` [Methyl p-hydroxybenzoate], the IC50 at OBP21 [1] stood at 5000 nM; in assay [2], 2500 nM; in assay [3], 1900 nM. The Kd in assay [2] was 1100 nM; in assay [3] it was 800 nM; at OBP21 [4] it was 8500 nM.

As to `COc1cc(/C=C/CO)ccc1O` [Coniferyl alcohol], the values for the 50% inhibitory concentration (IC50) (on OBP21 [1]; in assay [2]; in assay [3]) were over 20000 nM, 18000 nM and 3600 nM, respectively. For the same compound, the results for the dissociation constant Kd in assay [2] and in assay [3] were 8300 nM and 1600 nM, respectively.

In the case of `CCCCCCCCCCCCCCCC(=O)OC` [Methyl palmitate], the IC50 at OBP21 [1] is over 20000 nM; in assay [2], 900 nM; in assay [3], 200 nM. For the same compound, the Kd in assay [2] is 400 nM; in assay [3] it was 100 nM.

On to `CC(C)=CCCC(C)CC=O` (stereo not shown) [Citronellal], for which the IC50 at OBP21 [1] came to 8000 nM; in assay [2] it was 3500 nM; in assay [3] it was 2500 nM. Further, the Kd in assay [2] was 1600 nM; in assay [3], 1100 nM; on OBP21 [4], 13600 nM.

As for `Cc1ccccc1C=CC=O` [2-Methylcinnamaldehyde], the IC50 is 18000 nM at OBP21 [1], 7000 nM in assay [2] and 1200 nM in assay [3]. For the same compound, the Kd in assay [2] was 3200 nM; in assay [3], 500 nM; at OBP21 [4], 30500 nM.

On to `c1ccc(Nc2cccc3ccccc23)cc1` [1-NPN, N-phenyl-1-naphthylamine], for which the Kd (in assay [5]; in assay [6]; at OBP21 [7]) was 1000 to 5000 nM throughout.

As for `CCCCCCCCC(=O)O` [Nonanoic acid], the half-maximal inhibitory concentration (IC50) on OBP21 [1] is over 20000 nM; in assay [2], 1100 nM; in assay [3], 300 nM. Moreover, the Kd is 500 nM in assay [2] and 100 nM in assay [3].

For the compound `CC(C)=CCC/C(C)=C/C=O` [Citral], the 50% inhibitory concentration (IC50) on OBP21 [1] amounted to 16000 nM; in assay [2], 4400 nM; in assay [3] it was 1600 nM. For the same compound, the Kd was 2000 nM in assay [2], 700 nM in assay [3] and 27100 nM at OBP21 [4].

With `C=CCc1ccc(O)c(OC)c1` [Eugenol], the IC50 at OBP21 [1] was over 20000 nM; in assay [2], over 20000 nM; in assay [3], 2300 nM. For the same compound, the Kd in assay [3] is 1000 nM.

For `CC(=O)OCCc1ccccc1` [2-Phenylethyl acetate], the IC50 at OBP21 [1] is 18000 nM; in assay [2], 8000 nM; in assay [3], 2500 nM. Besides, the Kd in assay [2] is 3700 nM; in assay [3], 1100 nM; on OBP21 [4] it was 30500 nM.

With `CCCCCCCC/C=C\CCCCCCCC(N)=O` [Oleamide], the IC50 on OBP21 [1] was 400 nM; in assay [2] it was 1000 nM; in assay [3], 100 nM. The Kd in assay [2] is 400 nM; in assay [3] it was 100 nM; at OBP21 [4], 600 nM.

Turning to `CC(=O)CC/C=C(\C)CCC=C(C)C` [Geranylacetone], the IC50 worked out at 1500 nM at OBP21 [1], 1800 nM in assay [2] and 1800 nM in assay [3]. For the same compound, the Kd in assay [2] is 800 nM; in assay [3], 800 nM; on OBP21 [4], 2500 nM.

Take `CCCCCCCCCCCC(=O)O` [Dodecanoic acid]: the IC50 at OBP21 [1] is 10000 nM; in assay [2], 700 nM; in assay [3] it was 300 nM. Besides, the results for the Kd (in assay [2]; in assay [3]; on OBP21 [4]) were 300 nM, 100 nM and 16900 nM, respectively.

With `CCCCCC(C)=O` [2-Heptanone], the IC50 at OBP21 [1] amounted to 20000 nM; in assay [2] it was 18000 nM; in assay [3], 2400 nM. The Kd is 8300 nM in assay [2], 1100 nM in assay [3] and 33900 nM on OBP21 [4].

As to `CC(C)CCCC(C)CCO` (stereo not shown) [3,7-dimethyloctanol], the figures for the IC50 (on OBP21 [1]; in assay [2]; in assay [3]) were 2200 nM, 500 nM and 200 nM, respectively. Besides, the results for the Kd (in assay [2]; in assay [3]; on OBP21 [4]) were 200 nM, 100 nM and 3700 nM, respectively.

As for `OCCc1ccccc1` [2-Phenyl ethanol], the IC50 at OBP21 [1] was over 20000 nM; in assay [2], over 20000 nM; in assay [3], 2500 nM. In addition, in assay [3], the Kd is 1100 nM.

Consider `CC(C)=CCC/C(C)=C/CO` [geraniol], for which the half-maximal inhibitory concentration (IC50) on OBP21 [1] is over 20000 nM; in assay [2] it was 1100 nM; in assay [3] it was 300 nM. Also, the Kd in assay [2] was 500 nM; in assay [3], 100 nM.

A word on the IC50: it is the point on the concentration scale where inhibition reaches its midpoint. As a reminder, the Kd is a measure of binding affinity in units of concentration.
